Results published in patent US20250171437A1 (Agios Pharmaceuticals,Inc., priority 2022, published 2025).

Target: T1, human PAH with the R408W mutation (A375 R408W cells) (Homo sapiens, UniProt P00439, R408W)
T1 construct: expressed in transfected cells
T1 sequence (P00439 1-452 R408W): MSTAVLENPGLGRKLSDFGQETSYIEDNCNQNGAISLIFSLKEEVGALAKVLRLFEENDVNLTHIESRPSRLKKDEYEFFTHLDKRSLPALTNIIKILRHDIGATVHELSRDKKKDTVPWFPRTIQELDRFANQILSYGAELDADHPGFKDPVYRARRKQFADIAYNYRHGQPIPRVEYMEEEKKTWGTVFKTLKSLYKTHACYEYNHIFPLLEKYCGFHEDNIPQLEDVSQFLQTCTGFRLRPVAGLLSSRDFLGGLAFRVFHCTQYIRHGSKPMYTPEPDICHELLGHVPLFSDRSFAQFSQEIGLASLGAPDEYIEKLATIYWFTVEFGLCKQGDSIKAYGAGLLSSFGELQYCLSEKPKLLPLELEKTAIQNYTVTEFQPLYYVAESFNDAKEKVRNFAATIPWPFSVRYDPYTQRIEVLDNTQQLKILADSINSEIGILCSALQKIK
Assay: Cell Based Phenylalanine Flux Assay
Conditions: 24 hrs with compound, then 20 μM sepiapterin and 800 μM 13C9,15N-Phenylalanine for 4 hours, 13C-Tyrosine by LC-MS, average where tested multiple times
How it was run: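 Puromycin-selected A375 line, lentiviral hPAH R408W; cmpd 24 h, 37 °C, 5% CO2, 0.5% DMSO; then 20 μM sepiapterin + 800 μM 13C9,15N-Phe, 4 h; media extracted in 80% MeCN; 13C-Tyr by LC-MS; AC50 from 10-pt curves.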

[1] = A375 cells expressing R408W PAH

| SMILES | AC50 (A375 R408W cells) [nM] | AC50 [1] [nM] |
| --- | --- | --- |
| COc1cccc2oc([C@H]3c4nc[nH]c4CCN3C(=O)c3nc(C(F)F)nn3C)nc12 [Example 602, (R)-(3-(difluoromethyl)-1-methyl-1H-1,2,4-triazol-5-yl)(4-(4-methoxybenzo[d]oxazol-2-yl)-6,7-dihydro-1H-imidazo[4,5-c]pyridin-5(4H)-yl)methanone] | 500 to 1000 | – |
| COc1cccc2nc([C@H]3c4nc[nH]c4CCN3C(=O)c3cc(C(F)F)nn3C)oc12 [Example 778, (R)-(3-(difluoromethyl)-1-methyl-1H-pyrazol-5-yl)(4-(7-methoxybenzo[d]oxazol-2-yl)-6,7-dihydro-1H-imidazo[4,5-c]pyridin-5(4H)-yl)methanone] | 500 to 1000 | – |
| Cc1nnc(C(=O)N2CCc3[nH]cnc3C2c2nc3cc(F)ccc3o2)o1 (centres unmarked) | – | 1000 to 5000 |
| O=C(c1cnco1)N1CCc2[nH]cnc2C1c1nc2c(F)c(F)ccc2o1 (centres unmarked) | – | ≥ 5000 |
| Cc1cccc2nc([C@@H]3c4nc[nH]c4CCN3C(=O)c3nc(C(F)(F)F)nn3C)oc12 [Example 685, (S)-(1-methyl-3-(trifluoromethyl)-1H-1,2,4-triazol-5-yl)(4-(7-methylbenzo[d]oxazol-2-yl)-6,7-dihydro-1H-imidazo[4,5-c]pyridin-5(4H)-yl)methanone] | 500 to 1000 | – |
| O=C(c1ocnc1C(F)F)N1CCc2[nH]cnc2[C@H]1c1nc2ccc(F)cc2o1 [Example 163, (S)-(4-(difluoromethyl)oxazol-5-yl)(4-(6-fluorobenzo[d]oxazol-2-yl)-6,7-dihydro-1H-imidazo[4,5-c]pyridin-5(4H)-yl)methanone] | ≤ 500 | – |
| O=C(c1ccn(CC(F)F)n1)N1CCc2[nH]cnc2C1c1nc2ccccc2o1 (centres unmarked) | – | 1000 to 5000 |
| Cn1cc(-c2ncc(C(=O)N3CCc4[nH]cnc4[C@H]3c3nc4cc(F)ccc4o3)s2)cn1 [Example 9, (S)-(4-(5-fluorobenzo[d]oxazol-2-yl)-6,7-dihydro-1H-imidazo[4,5-c]pyridin-5(4H)-yl)(2-(1-methyl-1H-pyrazol-4-yl)thiazol-5-yl)methanone] | ≤ 500 | – |
| O=C(CCc1nccs1)N1CCc2[nH]cnc2C1c1nc2ccc(Br)cc2o1 (centres unmarked) | – | ≥ 5000 |
| Cc1nn(C)cc1-c1nnc(C(=O)N2CCc3[nH]cnc3[C@@H]2c2nc3cc(F)ccc3o2)o1 [Example 882, (R)-(5-(1,3-dimethyl-1H-pyrazol-4-yl)-1,3,4-oxadiazol-2-yl)(4-(5-fluorobenzo[d]oxazol-2-yl)-6,7-dihydro-1H-imidazo[4,5-c]pyridin-5(4H)-yl)methanone] | 1000 to 5000 | – |
| O=C(c1cnc(-c2ccccn2)s1)N1CCc2[nH]cnc2[C@@H]1c1nc2cc(F)ccc2o1 [Example 6, (R)-(4-(5-fluorobenzo[d]oxazol-2-yl)-6,7-dihydro-1H-imidazo[4,5-c]pyridin-5(4H)-yl)(2-(pyridin-2-yl)thiazol-5-yl)methanone] | 1000 to 5000 | – |
| Cc1ccc2oc([C@H]3c4nc[nH]c4CCN3C(=O)c3nnc(-c4ccn(C)n4)o3)nc2c1 [Example 390, (R)-(5-(1-methyl-1H-pyrazol-3-yl)-1,3,4-oxadiazol-2-yl)(4-(5-methylbenzo[d]oxazol-2-yl)-6,7-dihydro-1H-imidazo[4,5-c]pyridin-5(4H)-yl)methanone] | 1000 to 5000 | – |
| COCc1ccc2c(C(=O)N3CCc4[nH]cnc4C3c3nc4ccc(F)cc4o3)cnn2c1 (centres unmarked) | – | ≥ 5000 |
| Cn1cc(-c2nnc(C(=O)N3CCc4[nH]cnc4[C@H]3c3nc4c(F)cc(F)cc4o3)o2)cn1 [Example 522, (S)-(4-(4,6-difluorobenzo[d]oxazol-2-yl)-6,7-dihydro-1H-imidazo[4,5-c]pyridin-5(4H)-yl)(5-(1-methyl-1H-pyrazol-4-yl)-1,3,4-oxadiazol-2-yl)methanone] | 500 to 1000 | – |
| O=C(c1nnc(-c2ccccn2)o1)N1Cc2[nH]cnc2[C@H]1c1nc2ccccc2o1 [Example 937, (S)-(4-(benzo[d]oxazol-2-yl)-4,6-dihydropyrrolo[3,4-d]imidazol-5(1H)-yl)(5-(pyridin-2-yl)-1,3,4-oxadiazol-2-yl)methanone] | 1000 to 5000 | – |
| Cn1cc(-c2ccc3c(C(=O)N4CCc5[nH]cnc5[C@@H]4c4nc5c(F)cccc5o4)cnn3c2)cn1 [Example 542, (R)-(4-(4-fluorobenzo[d]oxazol-2-yl)-6,7-dihydro-1H-imidazo[4,5-c]pyridin-5(4H)-yl)(6-(1-methyl-1H-pyrazol-4-yl)pyrazolo[1,5-a]pyridin-3-yl)methanone] | 1000 to 5000 | – |

| SMILES | AC50 (A375 R408W cells) [nM] | AC50 [1] [nM] |
| --- | --- | --- |
| O=C(c1ocnc1C(F)F)N1CCc2[nH]cnc2[C@@H]1c1nc2cccc(OC(F)(F)F)c2o1 [Example 531, (R)-(4-(difluoromethyl)oxazol-5-yl)(4-(7-(trifluoromethoxy)benzo[d]oxazol-2-yl)-6,7-dihydro-1H-imidazo[4,5-c]pyridin-5(4H)-yl)methanone] | ≤ 500 | – |
| CC(C)(F)c1nnc(C(=O)N2CCc3[nH]cnc3C2c2nc3cc(F)ccc3o2)o1 (centres unmarked) | – | 1000 to 5000 |
| CNC(C)(C)c1nc(C(F)F)c(C(=O)N2CCc3[nH]cnc3[C@@H]2c2nc3cc(F)ccc3o2)o1 [Example 222, (R)-(4-(difluoromethyl)-2-(2-(methylamino)propan-2-yl)oxazol-5-yl)(4-(5-fluorobenzo[d]oxazol-2-yl)-6,7-dihydro-1H-imidazo[4,5-c]pyridin-5(4H)-yl)methanone] | 1000 to 5000 | – |
| CC(C)(O)c1nc(C(F)F)c(C(=O)N2CCc3[nH]cnc3[C@H]2c2nc3cccc(Cl)c3o2)o1 [Example 423, (S)-(4-(7-chlorobenzo[d]oxazol-2-yl)-6,7-dihydro-1H-imidazo[4,5-c]pyridin-5(4H)-yl)(4-(difluoromethyl)-2-(2-hydroxypropan-2-yl)oxazol-5-yl)methanone] | ≤ 500 | – |
| CC(C)(O)c1nc(C(F)F)c(C(=O)N2CCc3[nH]cnc3[C@@H]2c2nc3cccc(Br)c3o2)o1 [Example 459, (R)-(4-(7-bromobenzo[d]oxazol-2-yl)-6,7-dihydro-1H-imidazo[4,5-c]pyridin-5(4H)-yl)(4-(difluoromethyl)-2-(2-hydroxypropan-2-yl)oxazol-5-yl)methanone] | ≤ 500 | – |
| O=C(c1nnc(-c2ccccn2)o1)N1CCc2[nH]cnc2[C@H]1c1nc2c(F)c(F)ccc2o1 [Example 629, (S)-(4-(4,5-difluorobenzo[d]oxazol-2-yl)-6,7-dihydro-1H-imidazo[4,5-c]pyridin-5(4H)-yl)(5-(pyridin-2-yl)-1,3,4-oxadiazol-2-yl)methanone] | 500 to 1000 | – |
| O=C(c1nnc(-c2ccc(OC(F)(F)F)cn2)o1)N1CCc2[nH]cnc2[C@H]1c1nc2cc(F)ccc2o1 [Example 671, (S)-(4-(5-fluorobenzo[d]oxazol-2-yl)-6,7-dihydro-1H-imidazo[4,5-c]pyridin-5(4H)-yl)(5-(5-(trifluoromethoxy)pyridin-2-yl)-1,3,4-oxadiazol-2-yl)methanone] | 1000 to 5000 | – |
| O=C(c1cnn2cc(CN3CC(F)C3)ccc12)N1CCc2[nH]cnc2[C@@H]1c1nc2cc(F)ccc2o1 (single isomer, unassigned) | – | ≥ 5000 |
| O=C(c1ocnc1C(F)F)N1CCc2[nH]cnc2[C@@H]1c1nc2c(C(F)(F)F)cccc2o1 [Example 466, (R)-(4-(difluoromethyl)oxazol-5-yl)(4-(4-(trifluoromethyl)benzo[d]oxazol-2-yl)-6,7-dihydro-1H-imidazo[4,5-c]pyridin-5(4H)-yl)methanone] | 500 to 1000 | – |
| O=C(c1ocnc1C(F)F)N1CCc2[nH]cnc2[C@H]1c1nc2c(F)cc(F)cc2o1 [Example 301, (S)-(4-(4,6-difluorobenzo[d]oxazol-2-yl)-6,7-dihydro-1H-imidazo[4,5-c]pyridin-5(4H)-yl)(4-(difluoromethyl)oxazol-5-yl)methanone] | ≤ 500 | – |
| Cc1cccc2oc([C@@H]3c4nc[nH]c4CCN3C(=O)c3cnn4cc(N5CCC(O)CC5)ccc34)nc12 [Example 701, (S)-(6-(4-hydroxypiperidin-1-yl)pyrazolo[1,5-a]pyridin-3-yl)(4-(4-methylbenzo[d]oxazol-2-yl)-6,7-dihydro-1H-imidazo[4,5-c]pyridin-5(4H)-yl)methanone] | ≤ 500 | – |
| Cn1ccc(-c2nnc(C(=O)N3CCc4[nH]cnc4[C@@H]3c3nc4ccccc4o3)o2)n1 [Example 844, (R)-(4-(benzo[d]oxazol-2-yl)-6,7-dihydro-1H-imidazo[4,5-c]pyridin-5(4H)-yl)(5-(1-methyl-1H-pyrazol-3-yl)-1,3,4-oxadiazol-2-yl)methanone] | 500 to 1000 | – |
| O=C(c1ccnn1C(F)F)N1CCc2[nH]cnc2[C@@H]1c1nc2cccc(F)c2o1 [Example 196, (R)-(1-(difluoromethyl)-1H-pyrazol-5-yl)(4-(7-fluorobenzo[d]oxazol-2-yl)-6,7-dihydro-1H-imidazo[4,5-c]pyridin-5(4H)-yl)methanone] | 1000 to 5000 | – |
| CN1CCN(c2nnc(C(=O)N3CCc4[nH]cnc4C3c3nc4cc(F)ccc4o3)o2)CC1 (centres unmarked) | – | ≥ 5000 |
| COCCCc1ccc2c(C(=O)N3CCc4[nH]cnc4C3c3nc4cc(F)ccc4o3)cnn2c1 (centres unmarked) | – | ≥ 5000 |
| CC(C)(O)c1ncc(C(=O)N2CCc3[nH]cnc3[C@@H]2c2nc3c(F)cccc3o2)o1 [Example 894, (R)-(4-(4-fluorobenzo[d]oxazol-2-yl)-6,7-dihydro-1H-imidazo[4,5-c]pyridin-5(4H)-yl)(2-(2-hydroxypropan-2-yl)oxazol-5-yl)methanone] | 1000 to 5000 | – |
